Test results taken from publication PMC12655682, “Screening-Identified Oxazole-4-Carboxamide KB-2777 Exhibits In Vitro Anti-Coronavirus Activity” (Pharmaceutics, 2025).
“Also recorded” adds a separate entry of the source.

What was measured:
[1] = Cytotoxicity (EZ-Cytox WST) in LLC-MK2 cells; type: cell-based; conditions: rhesus monkey, 72 h exposure
Procedure: (§1) Cells were seeded at 2 × 10^4 cells per well in 96-well plates and, after overnight attachment, exposed to test compounds for 72 h in maintenance medium. The final DMSO concentration was ≤0.1% (v/v) for all conditions, including vehicle controls. Cell viability was quantified using EZ-Cytox WST reagent (DoGenBio, Seoul, Republic of Korea) according to the manufacturer’s instructions; absorbance was read at 450 nm on a SpectraMax i3x microplate reader (Molecular Devices, San Jose, CA, USA). Viability for each well was normalized to the mean of vehicle-treated (mock) controls on the same plate and expressed as percent viability. Each condition included technical replicates (n = 3) per experiment. Concentration–response data from ≥3 independent experiments were fit to a four-parameter logistic (4PL) model in GraphPad Prism 10.1.2 (GraphPad Software, San Diego, CA, USA) (log10-transformed concentrations; bottom and top unconstrained).

HCoV-OC43 = assay: Extracellular viral RNA by RT-qPCR of supernatants, HCoV-OC43/Vero E6; type: cell-based, Human coronavirus OC43; conditions: Betacoronavirus 1, Vero C1008; HCoV-OC43/Vero E6, 72 h post-infection, n = 3
Procedure: At 72 h post-infection, 100–200 μL of culture supernatant was collected. Viral RNA was extracted using the QIAamp Viral RNA Mini Kit (Qiagen, Hilden, Germany)according to the manufacturer’s instructions and quantified by one-step RT-qPCR on a real-time thermocycler.
EC50 values were determined from concentration–response curves generated by 2-fold serial dilutions, with at least four concentration points per curve. Each measurement was performed in triplicate technical replicates. Unless otherwise indicated, data are presented as mean ± SEM from three independent biological experiments (n = 3).
For absolute quantification, synthetic DNA (oligonucleotide) standards corresponding to the NL63, OC43, and PEDV amplicons were used. Ten-fold serial dilutions were prepared to generate standard curves. Ct values were interpolated against the curves to obtain gene copies per reaction and converted to genome copies per mL by accounting for extraction and elution volumes and the qPCR input volume.

[2] = test system: mock-infected cells (LLC-MK2, Vero E6); assay: EZ-Cytox WST cell viability in mock-infected cells under the same dosing as RT-qPCR; type: cell-based; conditions: tested concentration range (≤25 µM)
Procedure: as §1
We advanced KB-2777, the series member with the highest selectivity index (SI), to evaluate antiviral activity against α-coronaviruses (HCoV-NL63, PEDV) and a β-coronavirus (HCoV-OC43) by RT-qPCR. […] Representative cytopathic effect (CPE) micrographs (KB-2777 20 µM vs. virus-only) for HCoV-NL63, HCoV-OC43, and PEDV are provided in the Supplementary Information (Figure S16).

HCoV-NL63 = assay: Time-of-addition, spike (S) protein immunofluorescence assay, HCoV-NL63/LLC-MK2; type: cell-based, Human coronavirus NL63
Procedure: At 48 h post-infection, cells were fixed in 4% paraformaldehyde for 15 min, permeabilized with 0.1% Triton X-100, and blocked with 5% BSA. Samples were incubated with a virus-specific rabbit anti-S protein primary antibody, followed by a goat anti-rabbit IgG H&L (FITC) secondary antibody (Supplementary Table S1) and Hoechst nuclear counterstain. Images were acquired on an epifluorescence microscope. Using Fiji, binary thresholding and particle analysis (or Cell Counter) were applied to count the total number of cells and the number of S-positive cells per field, and the infection rate per well was calculated as (S-positive cells/total cells × 100%). At least eight randomly selected fields per well were analyzed.
TOA experiments were performed in HCoV-NL63–infected LLC-MK2 cells using four regimens: • Full: compound present from −24 h to 48 h relative to infection. • Pre-treatment: −24 h to −1 h, wash at −1 h, then infection in drug-free medium. • Co-treatment: −1 h to 0 h during adsorption only, wash at 0 h. • Post-treatment: 0 h to 48 h after adsorption.
Unless otherwise specified, infections were carried out at 100 TCID50 per well with 1 h adsorption at 37 °C, and compounds were used at 20 µM. Primary readout was S protein IFA at 48 h; EZ-Cytox and TCID50 at 48 h for the same regimens are provided in Supplementary Data (Figures S14 and S15).

[3] = test system: IL6, ISG15, IFNB1, NQO1, HMOX1 (HO-1), GCLM, DDIT3 (CHOP), ATF4, XBP1 transcripts; assay: Targeted host-response transcript profiling (two-step RT-qPCR) in MRC-5 cells; type: cell-based, human; conditions: n = 3
Procedure: Total RNA was isolated using the RNeasy kit (QIAGEN, Hilden, Germany) according to the manufacturer’s instructions. cDNA was synthesized with the Tetro cDNA Synthesis Kit (Meridian Bioscience, Memphis, TN, USA) following the manufacturer’s protocol. Quantitative PCR was performed using Luna Universal qPCR Master Mix, SYBR (New England Biolabs, Ipswich, MA, USA). Target genes included IL6, ISG15, IFNB1, NQO1, HMOX1 (HO-1), GCLM, DDIT3 (CHOP), ATF4, and XBP1; primer sequences are listed in Table S3. ACTB served as the internal control. Expression changes were calculated as −ΔΔCt (log2 fold change) relative to time-matched calibrators (OC43 only for infected comparisons; DMSO for uninfected). Each condition included n = 3 biological replicates. At each time point, data were analyzed independently in GraphPad Prism 10.1.2 (GraphPad Software, San Diego, CA, USA) using an ordinary two-way ANOVA with factors gene (9 levels) and treatment (2 levels). Significance marks reflect within-gene simple-effects comparisons (treatment) with Tukey’s multiple-comparisons adjustment (two-tailed, α = 0.05). Time was not included as a factor; no inferences were made across time points.

[4] = test system: HCoV-NL63-infected LLC-MK2 cells; assay: Propidium iodide (PI) live/dead imaging in HCoV-NL63/LLC-MK2; type: cell-based, rhesus monkey; conditions: 20 µM post-treatment, 48 h post-infection, vs virus + DMSO, p < 0.01
Procedure: Cells were infected as in the immunofluorescence assay (IFA) and were post-treated with KB-2777 (20 µM, DMSO ≤ 0.1%). At 48 h post-infection, cells were stained live with PI (approximately 1 µg/mL, 30 min) and were immediately imaged (PI/Hoechst). For each field, we counted total nuclei (Hoechst), NL63 S-positive cells, PI-positive cells, and double-positive (S∩PI) cells. Outcomes were % PI^+/Total and % PI^+ among infected cells (PI^+/NL63 S^+). […] Statistics used the Mann–Whitney U test (two-tailed).

COc1cccc(-c2oc(-c3ccc(C(F)(F)F)cc3)nc2C(=O)NCC2CC2)c1 [KB-2777, N-(cyclopropylmethyl)-5-(3-methoxyphenyl)-2-(4-(trifluoromethyl)phenyl)Oxazole-4-Carboxamide]
CC50 at 72 h [1]: > 50 µM | EC50 (HCoV-OC43): 1830 nM | cytotoxicity in mock-infected cells [2]: without cytotoxicity; also recorded: no overt cytotoxicity | inhibition by S protein IFA, post-treatment (HCoV-NL63; HCoV-NL63/LLC-MK2, 20 µM, 0 h to 48 h, readout 48 h): retained measurable activity | inhibition by S protein IFA, co-treatment (HCoV-NL63; HCoV-NL63/LLC-MK2, 20 µM, adsorption only (−1 h to 0 h), readout 48 h, vs virus-only DMSO control): little effect | inhibition by S protein IFA, pre-treatment (HCoV-NL63; HCoV-NL63/LLC-MK2, 20 µM, pre-exposure with washout, readout 48 h): retained measurable activity | inhibition by S protein IFA, full regimen (HCoV-NL63; HCoV-NL63/LLC-MK2, 20 µM, −24 h to 48 h, readout 48 h): greatest inhibition | time-of-addition effect-size order of regimens (HCoV-NL63; full, pre, co, post regimens, across readouts): full > pre ≈ post > co; also recorded: full » pre ≈ post » co | host-response transcripts (−ΔΔCt) in infected cells ([3]; OC43-infected MRC-5, OC43 + KB-2777 vs OC43 alone, time-matched): attenuated IL6, IFNB1, ISG15, and selected UPR transcripts; also recorded: attenuated these transcriptional responses | host-response transcripts (−ΔΔCt) in uninfected cells ([3]; uninfected MRC-5, KB-2777 alone vs DMSO): changes were limited and transient | % PI+ among infected cells (PI+/NL63 S+) [4]: reduces | % PI+/Total cells [4]: reduces
